{
  "source": "paper PMC3486926",
  "about": "(Journal of the American Chemical Society, 2012)",
  "biological_target": "LmbR (C-His6-LmbR) (Streptomyces lincolnensis, UniProt Q54372)",
  "test": "HPLC with charged aerosol detection, ESI-MS of product",
  "type": "biochemical",
  "details": "C5 acceptor, 10 mM; co-substrate F6P 10 mM",
  "data": [
    {"smiles": "O=P(O)(O)OC[C@H]1OC(O)[C@H](O)[C@H]1O", "note": "(stereo partly drawn) [8b, D-xylose 5-phosphate]", "values": [
      {"measurement": "HPLC with charged aerosol detection, ESI-MS of product", "value": "LmbR can accept both R5P (8a) and X5P (8b) as the C5 substrate"}
    ]},
    {"smiles": "O=P(O)(O)OC[C@H]1OC(O)[C@H](O)[C@@H]1O", "note": "(stereo partly drawn) [8a, D-ribose 5-phosphate]", "values": [
      {"measurement": "HPLC with charged aerosol detection, ESI-MS of product", "value": "LmbR can accept both R5P (8a) and X5P (8b) as the C5 substrate"}
    ]}
  ]
}
